# Literature values in US20220362237A1, “PS[…] TREATMENT OF PAIN” (Mind Medicine, Inc., priority 2021, published 2022).
# Tests used:
# [1] = grave and terminally ill patients, acute treatment (one or two doses); pain returned after several days
# [2] = 20-microgram dose
# [3] = system: 5-HT2B/C
# [4] = system: serotonin 5-HT1 receptors
# [5] = system: D1-3 receptors
# [6] = target: 5-HT transporter (SERT) (Homo sapiens, UniProt P31645)
# [7] = target: 5-HT2A receptor (Homo sapiens, UniProt P28223)
# [8] = system: 5HT2A receptors; conditions: tumor necrosis factor-alpha-induced inflammation
# [9] = target: D2 receptors (Homo sapiens, UniProt P14416)
# Sequence of D2 receptors (P14416 whole entry): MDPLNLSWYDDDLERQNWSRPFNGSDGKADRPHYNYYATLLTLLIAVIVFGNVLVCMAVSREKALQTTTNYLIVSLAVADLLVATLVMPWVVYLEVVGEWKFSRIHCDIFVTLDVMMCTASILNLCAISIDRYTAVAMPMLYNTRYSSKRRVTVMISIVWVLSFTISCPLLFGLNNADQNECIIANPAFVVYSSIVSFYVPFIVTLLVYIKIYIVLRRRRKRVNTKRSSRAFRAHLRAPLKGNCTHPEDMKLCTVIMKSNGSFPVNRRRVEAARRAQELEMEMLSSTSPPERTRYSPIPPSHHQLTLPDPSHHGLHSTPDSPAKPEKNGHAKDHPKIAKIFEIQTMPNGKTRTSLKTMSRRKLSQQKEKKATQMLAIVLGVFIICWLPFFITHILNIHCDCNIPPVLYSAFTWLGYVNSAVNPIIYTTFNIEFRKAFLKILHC
# Sequence of 5-HT transporter (SERT) (P31645 whole entry, species assumed): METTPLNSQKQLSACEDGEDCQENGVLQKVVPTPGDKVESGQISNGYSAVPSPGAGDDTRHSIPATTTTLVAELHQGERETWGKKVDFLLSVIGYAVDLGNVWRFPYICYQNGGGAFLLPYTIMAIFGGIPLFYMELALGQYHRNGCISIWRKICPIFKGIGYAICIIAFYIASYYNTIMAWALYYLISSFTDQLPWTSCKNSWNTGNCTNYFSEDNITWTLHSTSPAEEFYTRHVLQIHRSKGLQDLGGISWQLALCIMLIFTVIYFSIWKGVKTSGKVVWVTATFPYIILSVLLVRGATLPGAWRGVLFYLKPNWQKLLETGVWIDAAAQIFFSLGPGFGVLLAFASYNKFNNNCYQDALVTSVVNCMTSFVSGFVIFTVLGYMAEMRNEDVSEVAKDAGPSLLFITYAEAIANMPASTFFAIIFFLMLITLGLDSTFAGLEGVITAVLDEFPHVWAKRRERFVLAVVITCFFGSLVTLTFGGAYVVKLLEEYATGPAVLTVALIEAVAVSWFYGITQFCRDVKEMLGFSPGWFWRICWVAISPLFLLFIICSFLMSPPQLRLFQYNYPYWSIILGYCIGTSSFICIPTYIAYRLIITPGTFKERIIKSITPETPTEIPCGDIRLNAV
# Sequence of 5-HT2A receptor (P28223 whole entry): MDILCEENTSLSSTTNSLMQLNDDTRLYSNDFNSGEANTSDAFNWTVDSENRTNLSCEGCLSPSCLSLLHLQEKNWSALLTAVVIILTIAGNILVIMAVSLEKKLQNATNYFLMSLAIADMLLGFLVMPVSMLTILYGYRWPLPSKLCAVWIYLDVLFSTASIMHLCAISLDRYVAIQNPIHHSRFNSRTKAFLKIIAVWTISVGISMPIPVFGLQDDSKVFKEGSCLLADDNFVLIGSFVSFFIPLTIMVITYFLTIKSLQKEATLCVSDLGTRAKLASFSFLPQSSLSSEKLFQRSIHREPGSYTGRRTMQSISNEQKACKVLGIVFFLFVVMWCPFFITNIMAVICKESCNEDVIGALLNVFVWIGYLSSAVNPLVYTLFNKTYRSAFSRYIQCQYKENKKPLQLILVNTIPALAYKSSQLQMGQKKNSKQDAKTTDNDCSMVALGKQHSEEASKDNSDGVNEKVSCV
structure (smiles),measurement,setting,value
"CCN(CC)C(=O)[C@@H]1C=C2c3cccc4[nH]cc(c34)C[C@H]2N(C)C1 [LSD, lysergic acid diethylamide]",pain relief compared with the narcotics meperidine and dihydromorphinone,[1],greater and longer lasting pain relief
same,subjective levels of experienced pain and unpleasantness,[2],decreased
same,time that participants could tolerate cold water exposure,[2],significantly increased
same,stimulation of 5-HT2B/C receptors,[3],stimulates
same,agonist potency at serotonin 5-HT1 receptors,[4],potent agonists
same,stimulation of D1-3 receptors,[5],stimulates
same,interaction with / inhibition of the 5-HT transporter (SERT),[6],does not interact
same,stimulation of the 5-HT2A receptor,[7],potently stimulates
"COc1cc(CC(C)N)c(OC)cc1I (stereo not shown) [R-DOI, 2,5-dimethoxy-4-iodoamphetamine]",anti-inflammatory effect,[8],potent anti-inflammatory effect
COc1cc(CCN)cc(OC)c1OC [mescaline],agonist potency at serotonin 5-HT1 receptors,[4],low potency
same,affinity for D2 receptors,[9],no affinity
CN(C)CCc1c[nH]c2cccc(O)c12 [psilocin],agonist potency at serotonin 5-HT1 receptors,[4],potent agonists
same,interaction with / inhibition of the 5-HT transporter (SERT),[6],inhibits
